Laboratory results taken from patent US20260125675A1, “DOWNREGULATING TROLLS USING NOVEL ANTISENSE OLIGONUCLEOTIDES TO OVERCOME RESISTANCE TO CHEMOTHERAPY” (H. LEE MOFFITT CANCER CENTER AND RESEARCH INSTITUTE, INC., priority 2022, published 2026).

Experiments:
Format in all cases: cell-based, human
Settings in all cases: treated 72 hr
[1] = test system: TROLL-3; test: qRT-PCR for TROLL-3 in CAID cells treated with the indicated drugs
Experimental: (§1) 195. We were interested in determining the effect of treatment with adriamycin, docetaxel, or paclitaxel on the levels of TOLL-2 and TROLL-3. qRT-PCR was performed for TROLL-2 and TROLL-3 in CAID cells treated with the indicated drugs for 72 hr. Western blosts of the levels of phosphorylated and total AKT, and relative quantification were determined (FIG. 1). […] We next observed that the levels of TROLL-3 are higher in lung adenocarcinoma (LUAD) with EGFR mutations with EGFR mutations in 2 distinct cohorts of patients (the TCGA cohort and Moffitt cohort) (FIGS. 2 and 3). Next we looked at the association association between pAKT levels and resistance to treatment in a panel of LUAD cell lines. Western blot levels of phosphorylated and total AKT in the indicated cell lines. Red boxes denote cell lines where PAKT levels are higher in the cells resistant to the indicated inhibitors compared to the respective parental cells (FIG. 4). Such increase in pAKT levels is associated with the resistance to anti-cancer treatment. To see the effect of TROLL-2 or TROLL-3 downregulation of pAKT levels in LUAD cells, we prefromed western blosts of the lvels of phosphorylated and total AKT in parental and KRASi resistant or EGFRi resistant cells using untreated on siRNA knockdown of TROLL-2 or TROLL-3 (FIGS. 5 and 6). We observed that downregulation of TROLL-2 or TROLL-3 reduces pAKT levels in KRASi and EGFRi resistant LUAD cells. Next we identified antisense LNA GapmeRs targeting TROLL-2 and TROLL-3 (50 nM-2 experiments). We used […]-PCR (qRT-PCR) for TROLL-2 and TROLL-3 in CAID cells treated with the indicated Antisense LNA GapmeRs for 48 hr. The following reagents were purchased from Qiagen: negative control=LG00000002-DDB, TROLL-2 A=LG00807687-DDB. TROLL-2 B=LG00807688-DDB, TROLL-2 C=LG00807689-DDB. TROLL-2 D=LG00807691-DDB, TROLL-2 E=LG00807694-DDB, TROLL-3 A=LG00807697-DDB, TROLL-3 B=LG00807698-DDB, TROLL-3 C=LG00807699-DDB, TROLL-3 D=LG00807700-DDB, and TROLL-3 E=LG00807701-DDB (FIG. 7). […]

[2] = test system: AKT; test: Western blot of phosphorylated and total AKT in drug-treated CAID cells
Experimental: as §1

[3] = test system: TROLL-2; test: qRT-PCR for TROLL-2 in CAID cells treated with the indicated drugs
Experimental: as §1

COc1cccc2c1C(=O)c1c(O)c3c(c(O)c1C2=O)C[C@@](O)(C(=O)CO)C[C@@H]3O[C@H]1C[C@H](N)[C@H](O)[C@H](C)O1 [adriamycin]
levels of TROLL-3 (qRT-PCR) [1]: increases
AKT pathway activation (phosphorylated and total AKT, western blot) [2]: activation of the AKT pathway
levels of TROLL-2 (qRT-PCR) [3]: increases

CC(=O)O[C@H]1C(=O)[C@@]2(C)[C@H]([C@H](OC(=O)c3ccccc3)[C@]3(O)C[C@H](OC(=O)[C@H](O)[C@@H](NC(=O)c4ccccc4)c4ccccc4)C(C)=C1C3(C)C)[C@]1(OC(C)=O)CO[C@@H]1C[C@@H]2O [paclitaxel]
levels of TROLL-3 (qRT-PCR) [1]: increases
AKT pathway activation (phosphorylated and total AKT, western blot) [2]: activation of the AKT pathway
levels of TROLL-2 (qRT-PCR) [3]: increases

CC(=O)O[C@@]12CO[C@@H]1C[C@H](O)[C@@]1(C)C(=O)[C@H](O)C3=C(C)[C@@H](OC(=O)[C@H](O)[C@@H](NC(=O)OC(C)(C)C)c4ccccc4)C[C@@](O)([C@@H](OC(=O)c4ccccc4)[C@H]21)C3(C)C [docetaxel]
levels of TROLL-3 (qRT-PCR) [1]: increases
AKT pathway activation (phosphorylated and total AKT, western blot) [2]: activation of the AKT pathway
levels of TROLL-2 (qRT-PCR) [3]: increases
